Source: publication PMC4391372 (Journal of agricultural and food chemistry, 2011)

Molecular target: T1, hTAS2R31 (Homo sapiens, UniProt P59538)
T1 sequence (P59538 1-309): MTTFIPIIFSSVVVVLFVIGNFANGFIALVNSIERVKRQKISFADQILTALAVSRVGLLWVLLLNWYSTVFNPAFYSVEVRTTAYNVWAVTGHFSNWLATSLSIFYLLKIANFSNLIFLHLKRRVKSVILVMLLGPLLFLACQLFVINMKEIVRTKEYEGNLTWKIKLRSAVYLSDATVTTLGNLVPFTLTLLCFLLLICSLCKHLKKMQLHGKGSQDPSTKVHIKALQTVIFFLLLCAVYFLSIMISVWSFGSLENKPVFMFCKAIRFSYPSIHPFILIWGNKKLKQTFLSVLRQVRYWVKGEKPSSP
Test: HEK-293T cell-based receptor assay

IC50 [µM]	Structure (SMILES)
5.5 ± 2.5	COc1cc(O)c2c(c1)O[C@H](c1ccc(O)cc1)CC2=O [compound 2, sakuranetin]
11.7 ± 6	COc1cc(-c2cc(=O)c3c(O)c(OC)c(O)cc3o2)ccc1O [compound 10, jaceosidin]
10.2 ± 5.4	COc1cc2c(c(O)c1OC)C(=O)C[C@@H](c1ccc(O)cc1)O2 [compound 9, 6-methoxysakuranetin]
